According to patent publication US20260138958A1, “SUBSTITUTED N-PHENYLURACILS AND SALTS THEREOF, AND USE THEREOF AS HERBICIDAL ACTIVE SUBSTANCES” (Bayer Aktiengesellschaft, priority 2022, published 2026):

Key:
Format in all cases: in vivo
[1] = tested on: Triticum aestivum (TRZAS); test: Post-emergence crop plant compatibility, greenhouse pot test
Protocol: (§1) Seeds of monocotyledonous and dicotyledonous weeds and crop plants were placed in sandy loam in plastic or wood-fibre pots, covered with soil and cultivated in a greenhouse under controlled growth conditions. 2 to 3 weeks after sowing, the test plants were treated at the one-leaf stage. The compounds of the invention, formulated in the form of wettable powders (WP) or as emulsion concentrates (EC), were then sprayed onto the green parts of the plants as aqueous suspension or emulsion with addition of 0.5% additive at a water application rate of 600 l/ha (converted). After the test plants had been kept in the greenhouse under optimum growth conditions for about 3 weeks, the activity of the preparations was rated visually in comparison to untreated controls. For example, 100% activity=the plants have died, 0% activity=like control plants.
The observed effects on selected crop plants are reported here in comparison to the untreated controls (values in %).

[2] = tested on: Digitaria sanguinalis (DIGSA); test: Post-emergence herbicidal action, greenhouse pot test
Protocol: as §1

Bassia scoparia (KCHSC) = test: as above
Protocol: as §1

Lolium rigidum (LOLRI) = test: as above
Protocol: as §1

Veronica persica (VERPE) = test: as above
Protocol: as §1

[3] = tested on: Echinochloa crus-galli (ECHCG); test: as above
Protocol: as §1

Setaria viridis (SETVI) = test: as above
Protocol: as §1

[4] = tested on: Alopecurus myosuroides (ALOMY); test: as above
Protocol: as §1

Viola tricolor (VIOTR) = test: as above
Protocol: as §1

[5] = tested on: Polygonum convolvulus (POLCO); test: as above
Protocol: as §1

[6] = tested on: Pharbitis purpurea (PHBPU); test: as above
Protocol: as §1

[7] = tested on: Tripleurospermum inodorum (MATIN); test: as above
Protocol: as §1

[8] = tested on: Amaranthus retroflexus (AMARE); test: as above
Protocol: as §1

[9] = tested on: Abutilon theophrasti (ABUTH); test: as above
Protocol: as §1

SMILES | Post-emergence effect at 5 g/ha against DIGSA in % [2] [%] | Post-emergence effect at 20 g/ha against DIGSA in % [2] [%] | Post-emergence effect at 1.25 g/ha against KCHSC in % (Bassia scoparia (KCHSC)) [%] | Post-emergence effect at 5 g/ha against KCHSC in % (Bassia scoparia (KCHSC)) [%] | Post-emergence effect at 20 g/ha against KCHSC in % (Bassia scoparia (KCHSC)) [%] | Post-emergence effect at 1.25 g/ha against VERPE in % (Veronica persica (VERPE)) [%] | Post-emergence effect at 5 g/ha against ECHCG in % [3] [%] | Post-emergence effect at 1.25 g/ha against SETVI in % (Setaria viridis (SETVI)) [%] | Post-emergence effect at 1.25 g/ha against VIOTR in % (Viola tricolor (VIOTR)) [%] | Post-emergence effect at 5 g/ha against VIOTR in % (Viola tricolor (VIOTR)) [%] | Post-emergence effect at 1.25 g/ha against ABUTH in % [9] [%] | Post-emergence effect at 5 g/ha against VERPE in % (Veronica persica (VERPE); 5 g/ha) [%] | Post-emergence effect at 20 g/ha against VERPE in % (Veronica persica (VERPE); 20 g/ha) [%] | Post-emergence effect at 20 g/ha against ECHCG in % ([3]; 20 g/ha) [%] | Post-emergence effect at 5 g/ha against SETVI in % (Setaria viridis (SETVI); 5 g/ha) [%] | Post-emergence effect at 20 g/ha against SETVI in % (Setaria viridis (SETVI); 20 g/ha) [%] | Post-emergence effect at 20 g/ha against ALOMY in % ([4]; 20 g/ha) [%] | Post-emergence effect at 20 g/ha against VIOTR in % (Viola tricolor (VIOTR); 20 g/ha) [%] | Post-emergence effect at 20 g/ha against POLCO in % ([5]; 20 g/ha) [%] | Post-emergence effect at 5 g/ha against PHBPU in % ([6]; 5 g/ha) [%] | also measured
CC(OC(=O)COc1ccccc1Oc1cc(-n2c(=O)cc(C(F)(F)F)n(C)c2=O)c(F)cc1Cl)C1CC1 (stereo not shown) [I.7-2, 1-Cyclopropylethyl (2-{2-chloro-4-fluoro-5-[3-methyl-2,6-dioxo-4-(trifluoromethyl)-3,6-dihydropyrimidin-1(2H)-yl]phenoxy}phenoxy)acetate] | 100 | 100 | 100 | 100 | 100 | 100 | 100 | 100 | 100 | 100 | 80 | – | – | – | – | – | – | – | – | – | Post-emergence effect at 1.25 g/ha against TRZAS in % ([1]; Triticum aestivum, in vivo): 10%; Post-emergence effect at 1.25 g/ha against DIGSA in % ([2]; 1.25 g/ha): 100%; Post-emergence effect at 20 g/ha against LOLRI in % (Lolium rigidum (LOLRI)): 100%; pest or weed control at 5 g/ha (Veronica persica (VERPE); Veronica persica, 504 h, 5 g/ha, read-out: Post-emergence effect at 5 g/ha against VERPE in %): 100%; pest or weed control at 20 g/ha (Veronica persica (VERPE); Veronica persica, 504 h, 20 g/ha, read-out: Post-emergence effect at 20 g/ha against VERPE in %): 100%; pest or weed control at 20 g/ha ([3]; Echinochloa crus-galli, 504 h, 20 g/ha, read-out: Post-emergence effect at 20 g/ha against ECHCG in %): 100%; pest or weed control at 5 g/ha (Setaria viridis (SETVI); Setaria viridis, 504 h, 5 g/ha, read-out: Post-emergence effect at 5 g/ha against SETVI in %): 100%; pest or weed control at 20 g/ha (Setaria viridis (SETVI); Setaria viridis, 504 h, 20 g/ha, read-out: Post-emergence effect at 20 g/ha against SETVI in %): 100%; pest or weed control at 20 g/ha ([4]; Alopecurus myosuroides, 504 h, 20 g/ha, read-out: Post-emergence effect at 20 g/ha against ALOMY in %): 80%; pest or weed control at 20 g/ha (Viola tricolor (VIOTR); Viola tricolor, 504 h, 20 g/ha, read-out: Post-emergence effect at 20 g/ha against VIOTR in %): 100%; pest or weed control at 5 g/ha ([5]; Fallopia convolvulus, 504 h, 5 g/ha, read-out: Post-emergence effect at 5 g/ha against POLCO in %): 100%; pest or weed control at 20 g/ha ([5]; Fallopia convolvulus, 504 h, 20 g/ha, read-out: Post-emergence effect at 20 g/ha against POLCO in %): 100%; pest or weed control at 5 g/ha ([6]; Ipomoea purpurea, 504 h, 5 g/ha, read-out: Post-emergence effect at 5 g/ha against PHBPU in %): 100%; pest or weed control at 20 g/ha ([6]; Ipomoea purpurea, 504 h, 20 g/ha, read-out: Post-emergence effect at 20 g/ha against PHBPU in %): 100%; pest or weed control at 20 g/ha ([7]; Tripleurospermum inodorum, 504 h, 20 g/ha, read-out: Post-emergence effect at 20 g/ha against MATIN in %): 100%; pest or weed control at 1.25 g/ha ([8]; Amaranthus retroflexus, 504 h, 1.25 g/ha, read-out: Post-emergence effect at 1.25 g/ha against AMARE in %): 100%; pest or weed control at 5 g/ha ([8]; Amaranthus retroflexus, 504 h, 5 g/ha, read-out: Post-emergence effect at 5 g/ha against AMARE in %): 100%; pest or weed control at 20 g/ha ([8]; Amaranthus retroflexus, 504 h, 20 g/ha, read-out: Post-emergence effect at 20 g/ha against AMARE in %): 100%; pest or weed control at 5 g/ha ([9]; Abutilon theophrasti, 504 h, 5 g/ha, read-out: Post-emergence effect at 5 g/ha against ABUTH in %): 100%; pest or weed control at 20 g/ha ([9]; Abutilon theophrasti, 504 h, 20 g/ha, read-out: Post-emergence effect at 20 g/ha against ABUTH in %): 100%
Cn1c(C(F)(F)F)cc(=O)n(-c2cc(Oc3ccccc3OCC(=O)OCC3(C)CC3)c(Cl)cc2F)c1=O [I.7-5] | 100 | 100 | 100 | 100 | 100 | 100 | 100 | 100 | 100 | 100 | 100 | 100 | 100 | 100 | 100 | 100 | 100 | 100 | 100 | 100 | Post-emergence effect at 5 g/ha against ALOMY in % ([4]; 5 g/ha): 80%; Post-emergence effect at 1.25 g/ha against PHBPU in % ([6]; 1.25 g/ha): 100%; Post-emergence effect at 20 g/ha against PHBPU in % ([6]; 20 g/ha): 100%; Post-emergence effect at 5 g/ha against MATIN in % ([7]; 5 g/ha): 100%; Post-emergence effect at 20 g/ha against MATIN in % ([7]; 20 g/ha): 100%; Post-emergence effect at 1.25 g/ha against AMARE in % ([8]; 1.25 g/ha): 100%; Post-emergence effect at 5 g/ha against AMARE in % ([8]; 5 g/ha): 100%; Post-emergence effect at 20 g/ha against AMARE in % ([8]; 20 g/ha): 100%; Post-emergence effect at 5 g/ha against ABUTH in % ([9]; 5 g/ha): 100%; Post-emergence effect at 20 g/ha against ABUTH in % ([9]; 20 g/ha): 100%
CC(OC(=O)COc1ccccc1Oc1cc(-n2c(=O)cc(C(F)(F)F)n(C)c2=O)c(F)cc1Cl)C1CCCCC1 (stereo not shown) [I.7-15] | – | 100 | – | 100 | 100 | 80 | 90 | – | – | 100 | – | 100 | 100 | 100 | 100 | 100 | 80 | 100 | 100 | 100 | Post-emergence effect at 1.25 g/ha against TRZAS in % ([1]; crop plant, post-emergence, 1.25 g/ha): 20%; Post-emergence effect at 20 g/ha against PHBPU in % ([6]; 20 g/ha): 100%; Post-emergence effect at 1.25 g/ha against AMARE in % ([8]; 1.25 g/ha): 100%; Post-emergence effect at 5 g/ha against AMARE in % ([8]; 5 g/ha): 100%; Post-emergence effect at 20 g/ha against AMARE in % ([8]; 20 g/ha): 100%; Post-emergence effect at 20 g/ha against ABUTH in % ([9]; 20 g/ha): 100%
